# Earlier results as cited in patent US20050101565A1, “Pharmaceutical compositions and methods for treating, preventing, and managing cholesterol, dyslipidemia, and related disorders” (Esperion Therapeutics, Inc., priority 2002, published 2005).
# How the values were obtained:
# [1] = many patients, metformin therapy
# [2] = patients on metformin therapy
structure (smiles),measurement,setting,value
CN(C)C(=N)N=C(N)N [metformin],weight reduction,[1],5-10%
same,incidence of lactic acidosis,[2],"3 cases per 100,000 patient/year of therapy"
